Experimental data reported in PubChem BioAssay (NCI).
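Results reflect a 48-hour exposure of cells in 96-well plates to compound at five concentrations. TGI: concentration producing complete growth inhibition.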

Tests used:
Test in all cases: growth of human tumour cells (NCI), 48 h
[1] = test system: RXF 393 renal
[2] = test system: MDA-MB-435
[3] = test system: NCI/ADR-RES ovarian
[4] = test system: RXF-631 renal
[5] = test system: SNB-78 CNS
[6] = test system: HOP-18 NSCLC
[7] = test system: MCF7 breast

Compound: Nc1ccc(Oc2ccc(C3(c4ccc(Oc5ccc(N)c(O)c5)cc4)C4CC5CC(C4)CC3C5)cc2)cc1O
- TGI [1]: 4.51 µM
- TGI [2]: 5.22 µM
- TGI [3]: 5.91 µM

Compound: COC(=O)C(Cc1ccc2c(c1)OCO2)(NC(=O)c1ccccc1)P(=O)(OC)OC (centres undefined)
- TGI [4]: > 100 µM
- TGI [1]: > 100 µM
- TGI [5]: > 100 µM

Compound: CCOC(=O)/C(C#N)=c1/s/c(=C(\O)N/N=C/c2ccc(OC)cc2)c(=N)n1-c1ccccc1
- TGI [6]: > 100 µM

Compound: O=c1cc(O)c1=O
- TGI [7]: > 100 µM
- TGI [2]: > 100 µM
